Measurements from article PMC8345035, “Targeted Alpha-Particle Radiotherapy and Immune Checkpoint Inhibitors Induces Cooperative Inhibition on Tumor Growth of Malignant Melanoma” (Cancers, 2021).
Read-outs that look alike come from different tables or passages of the source. Each block holds one compound with its values, some of them ahead of it. Where a SMILES comes first, the peptide text is derived from it. Bridges are numbered along the chain shown (N, C = ends). Triazole bridges read from a SMILES are 1,4-linked. Side-chain parts run from the residue outwards. [ ]: non-standard residue; d: D form. The star is where a group is joined. X1 = NC(=O)CN1CCN(CC(=O)O)CCN(CC(=O)*)CCN(CC(=O)O)CC1; Lys(N3) = [N-]=[N+]=NCCCC[C@H](N)C(=O)O; Nle = CCCC[C@H](N)C(=O)O; Pra = C#CC[C@H](N)C(=O)O; AEEA = NCCOCCOCC(=O)O

Legend:
[1] = In vivo biodistribution of [^203Pb]VMT01 in B16-F10 melanoma xenograft model; parameters: species or system athymic nude mice; details: athymic nude, mouse, intravenous, 74 KBq, total radioactivity, tail vein; for tissue uptake at 0.5 h: 0.5 h post-injection; for tissue uptake at 1.5 h: 1.5 h post-injection; for tissue uptake at 3 h: 3 h post-injection; for tissue uptake at 6 h: 6 h post-injection; for tissue uptake at 24 h: 24 h post-injection
Procedure: Radiolabeling of VMT01 was carried out according to published methods. Briefly, ^203Pb^2+ was purified on 50 mg Pb-resin (Eichrom Technologies, Lisle, IL, USA) and eluted into reaction vessel using 0.5 M sodium acetate (NaOAc) pH = 6 buffer. The reaction vessel contained 20 nmole VMT01 peptide precursor and 0.29 mL of 0.5 M sodium acetate (NaOAc) pH = 4 buffer to adjust final pH to 5.4. The reaction solution was heated under 85 °C for 30 min. After reactions, free ^203Pb was removed by StrataX C-18 SPE cartridge (Phenomenex, Torrance, CA, USA) and final products were collected in 50% EtOH in saline. Biodistribution of [^203Pb]VMT01 was determined in a B16-F10 murine melanoma xenograft model in athymic nude mice. B16-F10 xenograft was developed by the subcutaneous (SC) injection of 2 × 10^5 B16-F10 cells at the left shoulder in 100 µL 50% Matrigel in complete growth media. Then, 74 KBq of [^203Pb]VMT01 (5.4 pmole) were administered via tail vein injection (2 male and 2 female at each time point) in 100 µL of saline with less than 10% EtOH content. At 0.5, 1.5, 3, 6, and 24 h post-injection, animals were euthanized, and organs of interest were harvested and weighed. Radioactivity in tumor and organs was measured on a Cobra II automated gamma counter. […] The value for 48 h was extrapolated from the last 3 time points (3, 6, and 24 h) of the biodistribution by one phase exponential decay with least squares fitting method (GraphyPrism V7). The average kidney volume was assumed to be 0.33 cm^3 for C57BL6 mice. […] The voxel size of the model was adjusted to have the same kidney volume as the averaged value (0.33 cm^3). The elemental composition of the kidney and the mass density was assumed to be identical as the human adults’ values obtained from the International Commission on Radiation Units and measurements (ICRU) report 46 [52].

metastatic melanoma = system: metastatic melanoma; parameters: method as in PMID 31562797; details: patients with metastatic melanoma; ref [13]; cited from earlier work
[2] = both sexes, blood, read-out: Biodistribution, Blood, Average
[3] = both sexes, brain, read-out: Biodistribution, Brain, Average
[4] = both sexes, heart, read-out: Biodistribution, Heart, Average
[5] = both sexes, kidney, read-out: Biodistribution, Kidneys, Average
[6] = both sexes, liver, read-out: Biodistribution, Liver, Average
[7] = both sexes, lungs, read-out: Biodistribution, Lungs, Average
[8] = both sexes, muscle, read-out: Biodistribution, Muscle, Average
[9] = both sexes, skin, read-out: Biodistribution, Skin, Average
[10] = both sexes, spleen, read-out: Biodistribution, Spleen, Average
[11] = both sexes, tumor, read-out: Biodistribution, Tumor, Average
[12] = male, testes, read-out: Biodistribution, Testes, Average

tissue uptake at 0.5 h [1, 2]: 1.1 %ID/g
tissue uptake at 1.5 h [1, 2]: 0.08 %ID/g
tissue uptake at 3 h [1, 2]: 0.03 %ID/g
tissue uptake at 6 h [1, 2]: 0.02 %ID/g
tissue uptake at 24 h [1, 2]: 0.01 %ID/g
tissue uptake at 0.5 h [1, 3]: 0.06 %ID/g
tissue uptake at 1.5 h [1, 3]: 0.02 %ID/g
tissue uptake at 3 h [1, 3]: 0.01 %ID/g
tissue uptake at 6 h [1, 3]: 0.01 %ID/g
tissue uptake at 24 h [1, 3]: 0.01 %ID/g
tissue uptake at 0.5 h [1, 4]: 0.66 %ID/g
tissue uptake at 1.5 h [1, 4]: 0.08 %ID/g
tissue uptake at 3 h [1, 4]: 0.05 %ID/g
tissue uptake at 6 h [1, 4]: 0.03 %ID/g
tissue uptake at 24 h [1, 4]: 0.02 %ID/g
tissue uptake at 0.5 h [1, 5]: 12.8 %ID/g
tissue uptake at 1.5 h [1, 5]: 6.1 %ID/g
tissue uptake at 3 h [1, 5]: 6 %ID/g
tissue uptake at 6 h [1, 5]: 5.3 %ID/g
tissue uptake at 24 h [1, 5]: 2.6 %ID/g
tissue uptake at 0.5 h [1, 6]: 0.64 %ID/g
tissue uptake at 1.5 h [1, 6]: 0.43 %ID/g
tissue uptake at 3 h [1, 6]: 0.31 %ID/g
tissue uptake at 6 h [1, 6]: 0.37 %ID/g
tissue uptake at 24 h [1, 6]: 0.22 %ID/g
tissue uptake at 0.5 h [1, 7]: 2.8 %ID/g
tissue uptake at 1.5 h [1, 7]: 2.98 %ID/g
tissue uptake at 3 h [1, 7]: 1.34 %ID/g
tissue uptake at 6 h [1, 7]: 1 %ID/g
tissue uptake at 24 h [1, 7]: 0.2 %ID/g
tissue uptake at 0.5 h [1, 8]: 0.73 %ID/g
tissue uptake at 1.5 h [1, 8]: 0.09 %ID/g
tissue uptake at 3 h [1, 8]: 0.04 %ID/g
tissue uptake at 6 h [1, 8]: 0.03 %ID/g
tissue uptake at 24 h [1, 8]: 0.02 %ID/g
tissue uptake at 0.5 h [1, 9]: 2.23 %ID/g
tissue uptake at 1.5 h [1, 9]: 0.27 %ID/g
tissue uptake at 3 h [1, 9]: 0.15 %ID/g
tissue uptake at 6 h [1, 9]: 0.17 %ID/g
tissue uptake at 24 h [1, 9]: 0.09 %ID/g
tissue uptake at 0.5 h [1, 10]: 0.58 %ID/g
tissue uptake at 1.5 h [1, 10]: 0.17 %ID/g
tissue uptake at 3 h [1, 10]: 0.12 %ID/g
tissue uptake at 6 h [1, 10]: 0.11 %ID/g
tissue uptake at 24 h [1, 10]: 0.09 %ID/g
tissue uptake at 0.5 h [1, 11]: 5.5 %ID/g
tissue uptake at 1.5 h [1, 11]: 8.9 %ID/g
tissue uptake at 3 h [1, 11]: 4.5 %ID/g
tissue uptake at 6 h [1, 11]: 3.8 %ID/g
tissue uptake at 24 h [1, 11]: 1.7 %ID/g
tissue uptake at 0.5 h [1, 12]: 3.23 %ID/g
tissue uptake at 1.5 h [1, 12]: 0.1 %ID/g
tissue uptake at 3 h [1, 12]: 0.04 %ID/g
tissue uptake at 6 h [1, 12]: 0.04 %ID/g
tissue uptake at 24 h [1, 12]: 0.03 %ID/g
Compound: CCCC[C@H](NC(C)=O)C(=O)N[C@H]1Cc2cn(nn2)CCCC[C@@H](C(=O)N[C@@H](CCCCNC(=O)COCCOCCNC(=O)CN2CCN(CC(=O)O)CCN(CC(N)=O)CCN(CC(=O)O)CC2)C(N)=O)NC(=O)[C@H](Cc2c[nH]c3ccccc23)NC(=O)[C@H](CCCNC(=N)N)NC(=O)[C@@H](Cc2ccccc2)NC(=O)[C@H](Cc2c[nH]cn2)NC1=O [[^203Pb]VMT01, metal not drawn] (Ac-[Nle][Pra]H[dF]RW[Lys(N3)]K([AEEA-X1])-NH2; triazole 2-7)

Compound: ipilimumab: anti-CTLA-4
complete response rate (metastatic melanoma): 6%

Compound: nivolumab: anti-PD1
complete response rate (metastatic melanoma): 19%
